Where a name gives a salt, the structure may show the parent alone.
Biological target: T1, human CGT (ceramide galactosyltransferase), CHO/CGT lysate (Homo sapiens, UniProt Q16880)
T1 construct: Full-length human CGT cDNA was cloned into the BamH1/Xho1 site of pcDNA3.1 (+); expressed in transfected cells; host or cells: Chinese hamster ovary (CHO) cells; lysate prepared with M-PER
T1 sequence (Q16880 21-541): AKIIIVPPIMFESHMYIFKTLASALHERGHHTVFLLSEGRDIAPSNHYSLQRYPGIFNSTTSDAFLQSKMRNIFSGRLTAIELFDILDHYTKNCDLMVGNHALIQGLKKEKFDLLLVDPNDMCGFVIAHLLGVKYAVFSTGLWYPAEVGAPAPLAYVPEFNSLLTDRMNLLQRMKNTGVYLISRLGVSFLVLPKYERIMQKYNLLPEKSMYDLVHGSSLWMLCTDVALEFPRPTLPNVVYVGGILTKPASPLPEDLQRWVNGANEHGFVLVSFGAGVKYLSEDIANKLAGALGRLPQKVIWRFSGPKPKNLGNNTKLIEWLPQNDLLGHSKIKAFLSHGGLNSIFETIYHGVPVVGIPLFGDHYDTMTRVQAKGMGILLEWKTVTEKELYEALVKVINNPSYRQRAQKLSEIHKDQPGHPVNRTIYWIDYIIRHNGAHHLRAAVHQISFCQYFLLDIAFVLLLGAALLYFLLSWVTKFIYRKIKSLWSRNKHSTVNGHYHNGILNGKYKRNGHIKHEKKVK
Assay: CGT enzyme assay, RapidFire/MS/MS readout with 0.01% Tween added (Table 1 ranges with two asterisks **)
Format: biochemical
Description: Full-length human CGT cDNA was cloned into the BamH1/Xho1 site of pcDNA3.1 (+) mammalian expression vector (V90-20, Invitrogen, Carlsbad, Calif.) and the plasmid was transfected into Chinese hamster ovary (CHO) cells. Lysate was prepared using M-PER (Mammalian Protein Extraction Reagent, ThermoFisher Scientific, Grand Island, N.Y.) in the presence of a protease inhibitor cocktail (P8340, Sigma, Saint Louis, Mo.). Each 100 mm dish (100% confluent, approximately 1×10^7 cells) was lysed with 250 μL of M-PER containing protease inhibitors. Protein concentration was determined using a Pierce BCA protein assay kit (ThermoFisher Scientific). Four micrograms of CHO/CGT lysate was incubated with various concentrations of a compound (0.001 μM-50 μM) in 10 mM HEPES (pH 7.2) containing 35 μM dioleoylphosphatidylcholine, 5 mM MgCl2, 5 mM MnCl2, 1% BSA, 15 mM KCl, 1 mM EGTA, 8 mM CHAPS, 10 μM C6-NBD-dihydro-ceramide and 17.5 μM UDP-galactose in a final reaction volume of 20 μL at 37° C. for 1 hour. The final concentration of DMSO was 0.5% in both compound-treated and mock-treated samples. Tween 80 (0.01%) was optionally added to the reaction mixture to help solubilize the compounds. Each individual reaction was diluted with 80 μL of methanol:acetronitrile (1:3) containing 5 μM N-docdecanoyl-NBD-galactosylceramide (internal standard) to stop the reaction. 200 μL H2O:acetonitile (1:1) was added to precipitate the protein. After sufficient mixing, the plates were centrifuged at 2469 g for 38 minutes, 200 μL of supernatant was transferred to a LC/MS 96-deep well plate and a second spin was performed at 2469 g for 10 minutes. The final supernatant was injected in triplicate for RapidFire/MS/MS analysis.
Quantitative Analysis Using the RapidFire/MS/MS Method:
The quantitative analysis of C6-NBD-dihydro-ceramide and C6-NBD-dihydro-galactosylceramide was performed on a Rapid Fire 360 high-throughput mass spectrometry system (Agilent Technologies, Palo Alto, Calif.) coupled with a API4000^+ triple quadrupole mass spectrometer (Applied Biosystems, Concord, Ontario, Canada). RapidFire software packages, including RapidFire Control panel, RapidFire UI and RapidFire Integrator (Agilent Technologies), were used to control the RapidFire instrument and to process data. Analyst 1.6.2 software packages (Applied Biosystems) were used to control the MS system and acquire MS data. […] of sample was loaded on a micro-scale C4 solid-phase extraction (SPE) cartridge (Agilent Technologies) and salts were removed using water supplemented with 0.1% formic acid at the flow rate of 1.5 mL/min for 3 sec. C6-NBD-dihydro-ceramide and C6-NBD-dihydro-galactosylceramide were co-eluted into the mass spectrometer using acetonitrile containing 0.1% formic acid at the flow rate of 1.0 mL/min for 3 sec. The total cycle time of one injection was 8 secs. The MS/MS detection was performed in ESI negative mode. The mass transition of C6-NBD-dihydro-galactosylceramide was m/z 752.6→678.6 using a −40 V collision energy, the mass transition of C6-NBD-dihydro-ceramide was m/z 590.6→115.8 using a −40 V collision energy and the mass transition of N-docdecanoyl-NBD-galactosylceramide was m/z 820.9→746.3 using a −45 V collision energy.
The C6-NBD-dihydro-galactosylceramide reading was normalized first by dividing the peak area of C6-NBD-dihydro-galactosylceramide by the peak area of the internal standard, N-docdecanoyl-NBD-galactosylceramide. IC50 values (see Table 1, where data ranges with one asterix (*) correspond to analysis using the RapidFire/MS/MS method, and data ranges with two asterixes (**) correspond to analysis using the RapidFire/MS/MS method with 0.01% Tween added) were generated from sigmoidal dose-response curves (variable slope) with GraphPad Prism software (GraphPad Software, Inc., San Diego, Calif.) using the normalized peak areas of C6-NBD-dihydro-galactosylceramide or the percent inhibition of C6-NBD-dihydro-galactosylceramide accumulation relative to DMSO control. […]

[1] = CGT enzyme assay, RapidFire/MS/MS method with 0.01% Tween added (range with two asterisks **)
[2] = CGT enzymatic assay, range with two asterisks (**): RapidFire/MS/MS method with 0.01% Tween added

Compound	IC50 [1] [µM]	IC50 [2] [µM]
COc1cc(C(F)(F)[C@H](NS(=O)(=O)c2ccc(OCC3CCCCC3)cc2)C(=O)N2C3CCC2CC(N)C3)ccc1-c1ccc(Cl)cc1 (stereo partly drawn) [Compound 142-1, N-((2R)-3-(3-amino-8-azabicyclo[3.2.1]octan-8-yl)-1-(4′-chloro-2-methoxy-[1,1′-biphenyl]-4-yl)-1,1-difluoro-3-oxopropan-2-yl)-4-(cyclohexylmethoxy) benzenesulfonamide trifluoroacetate]	< 1	
COc1cc(C(F)(F)[C@@H](NS(=O)(=O)c2ccc(OCC3CCCCC3)cc2)C(=O)N2C3CCC2CC(N)C3)ccc1-c1ccc(Cl)cc1 (stereo partly drawn) [Compound 142-2, N-((2S)-3-(3-amino-8-azabicyclo[3.2.1]octan-8-yl)-1-(4′-chloro-2-methoxy-[1,1′-biphenyl]-4-yl)-1,1-difluoro-3-oxopropan-2-yl)-4-(cyclohexylmethoxy)benzenesulfonamide trifluoroacetate]	1 to 10	
COc1cc(C(F)(F)[C@H](NS(=O)(=O)c2ccc3cc(OC4CCCC4)ccc3c2)C(=O)N2CCC(N)CC2)ccc1Br [Compound 143-1, (R)—N-(3-(4-aminopiperidin-1-yl)-1-(4-bromo-3-methoxyphenyl)-1,1-difluoro-3-oxopropan-2-yl)-6-(cyclopentyloxy)naphthalene-2-sulfonamide trifluoroacetate]	1 to 10	
COc1cc(C(F)(F)[C@@H](NS(=O)(=O)c2ccc3cc(OC4CCCC4)ccc3c2)C(=O)N2CCC(N)CC2)ccc1Br [Compound 143-2, (S)—N-(3-(4-aminopiperidin-1-yl)-1-(4-bromo-3-methoxyphenyl)-1,1-difluoro-3-oxopropan-2-yl)-6-(cyclopentyloxy) naphthalene-2-sulfonamide trifluoroacetate]	1 to 10	
COc1cc(C(F)(F)[C@H](NS(=O)(=O)c2ccc3cc(OC4CCCC4)ccc3c2)C(=O)N2CCC(N)CC2)ccc1-c1ccc(Cl)cc1 [Compound 144-1, (R)—N-(3-(4-aminopiperidin-1-yl)-1-(4′-chloro-2-methoxy-[1,1′-biphenyl]-4-yl)-1,1-difluoro-3-oxopropan-2-yl)-6-(cyclopentyloxy)naphthalene-2-sulfonamide trifluoroacetate]	< 1	
COc1cc(C(F)(F)[C@@H](NS(=O)(=O)c2ccc3cc(OC4CCCC4)ccc3c2)C(=O)N2CCC(N)CC2)ccc1-c1ccc(Cl)cc1 [Compound 144-2, (S)—N-(3-(4-aminopiperidin-1-yl)-1-(4′-chloro-2-methoxy-[1,1′-biphenyl]-4-yl)-1,1-difluoro-3-oxopropan-2-yl)-6-(cyclopentyloxy) naphthalene-2-sulfonamide trifluoroacetate]	1 to 10	
COc1cc(C(F)(F)[C@H](NS(=O)(=O)c2ccc(OCC3CCCCC3)cc2)C(=O)N2CCC(N)CC2)ccc1-c1ccc(Cl)cc1 [Compound 146-1, (R)—N-(3-(4-aminopiperidin-1-yl)-1-(4′-chloro-2-methoxy-[1,1′-biphenyl]-4-yl)-1,1-difluoro-3-oxopropan-2-yl)-4-(cyclohexylmethoxy) benzenesulfonamide trifluoroacetate]		< 1

More lines, now with the values ahead:

IC50 [1] [µM]	IC50 [2] [µM]	Compound
	< 1	COc1cc(C(F)(F)[C@H](NS(=O)(=O)c2ccc(OCC3CCCCC3)cc2)C(=O)N2CCC(N)CC2)ccc1Br [Compound 145-1, (R)—N-(3-(4-aminopiperidin-1-yl)-1-(4-bromo-3-methoxyphenyl)-1,1-difluoro-3-oxopropan-2-yl)-4-(cyclohexylmethoxy)benzenesulfonamide trifluoroacetate]
30 to 100		COc1cc(C(F)(F)[C@@H](NS(=O)(=O)c2ccc(OCC3CCCCC3)cc2)C(=O)N2CCC(N)CC2)ccc1Br [Compound 145-2, (S)—N-(3-(4-aminopiperidin-1-yl)-1-(4-bromo-3-methoxyphenyl)-1,1-difluoro-3-oxopropan-2-yl)-4-(cyclohexylmethoxy) benzenesulfonamide trifluoroacetate]
	1 to 10	COc1cc(C(F)(F)[C@@H](NS(=O)(=O)c2ccc(OCC3CCCCC3)cc2)C(=O)N2CCC(N)CC2)ccc1-c1ccc(Cl)cc1 [Compound 146-2, (S)—N-(3-(4-aminopiperidin-1-yl)-1-(4′-chloro-2-methoxy-[1,1′-biphenyl]-4-yl)-1,1-difluoro-3-oxopropan-2-yl)-4-(cyclohexylmethoxy)benzenesulfonamide trifluoroacetate]
	< 1	O=C([C@@H](NS(=O)(=O)c1ccc2cc(OC3CCCC3)ccc2c1)C(F)(F)c1ccc(-c2ccc(Cl)cc2)cc1)N1C[C@H]2CNC[C@H]2C1 [Compound 147-1, N—((R)-1-(4′-chloro-[1,1′-biphenyl]-4-yl)-1,1-difluoro-3-((3aR,6aS)-hexahydropyrrolo[3,4-c]pyrrol-2(1H)-yl)-3-oxopropan-2-yl)-6-(cyclopentyloxy) naphthalene-2-sulfonamide trifluoroacetate]
	10 to 30	O=C([C@H](NS(=O)(=O)c1ccc2cc(OC3CCCC3)ccc2c1)C(F)(F)c1ccc(-c2ccc(Cl)cc2)cc1)N1C[C@H]2CNC[C@H]2C1 [Compound 147-2, N—((S)-1-(4′-chloro-[1,1′-biphenyl]-4-yl)-1,1-difluoro-3-((3aR,6aS)-hexahydropyrrolo[3,4-c]pyrrol-2(1H)-yl)-3-oxopropan-2-yl)-6-(cyclopentyloxy)naphthalene-2-sulfonamide trifluoroacetate]
	1 to 10	N[C@H]1CCN(C(=O)[C@@H](NS(=O)(=O)c2ccc3cc(OC4CCCC4)ccc3c2)C(F)(F)c2ccc(-c3ccc(Cl)cc3)cc2)C1 [Compound 148-1, N—((R)-3-((S)-3-aminopyrrolidin-1-yl)-1-(4′-chloro-[1,1′-biphenyl]-4-yl)-1,1-difluoro-3-oxopropan-2-yl)-6-(cyclopentyloxy)naphthalene-2-sulfonamide trifluoroacetate]
	10 to 30	N[C@H]1CCN(C(=O)[C@H](NS(=O)(=O)c2ccc3cc(OC4CCCC4)ccc3c2)C(F)(F)c2ccc(-c3ccc(Cl)cc3)cc2)C1 [Compound 148-2, N—((S)-3-((S)-3-aminopyrrolidin-1-yl)-1-(4′-chloro-[1,1′-biphenyl]-4-yl)-1,1-difluoro-3-oxopropan-2-yl)-6-(cyclopentyloxy)naphthalene-2-sulfonamide trifluoroacetate]
	< 1	N[C@@H]1CCN(C(=O)[C@@H](NS(=O)(=O)c2ccc3cc(OC4CCCC4)ccc3c2)C(F)(F)c2ccc(-c3ccc(Cl)cc3)cc2)C1 [Compound 149-1, N—((R)-3-((R)-3-aminopyrrolidin-1-yl)-1-(4′-chloro-[1,1′-biphenyl]-4-yl)-1,1-difluoro-3-oxopropan-2-yl)-6-(cyclopentyloxy)naphthalene-2-sulfonamide trifluoroacetate]

Source: US20190322676A1, “CERAMIDE GALACTOSYLTRANSFERASE INHIBITORS FOR THE TREATMENT OF DISEASE” (BioMarin Pharmaceutical Inc., priority 2016, published 2019)
